Laboratory results from patent US20050038113A1, “Valproic acid and derivatives for the combinatorial therapeutic treatment of human cancers and for the treatment of tumor metastasis and minimal residual disease” (G2M Cancer Drugs AG, priority 2001, published 2005).

Tests used:
[1] = system: HCT-116 colon cancer cells; assay: cell counts and propidium iodide cell cycle/apoptosis analysis; assay type: cell-based, human
Experimental: For FIG. 14 cells were seeded in 6 well culture dishes at 100000 cells/well. The day after, they were treated with the indicated drugs (5-FU: 2 μM 5-Fluoruracile; AD: 20 ng/ml adriamycin; IT: 3 μM irinothecan), and then cultured for further 48 hours. Cells were counted at 24 h and 48 h after treatment. All of the assays have been performed in triplicate.
For FIG. 15 cells were seeded in 6 well culture dishes at 100000 cells/well. […] (A), results of triplicate counts of viable cells. (B), cells were stained with propidium iodide after permeabilization and fixation. Results of a cell cycle analysis are presented as percentage (%) of cells in G1, S, G2+M, and sub-G1 (apoptotic cells): all of the assays have been performed in triplicate.
(A), results of triplicate counts of viable cells. (B), cells were stained with propidium iodide after permeabilization and fixation. Results of a cell cycle analysis are presented as percentage (%) of apoptotic cells: all of the assays have been performed in triplicate.
For FIG. 17 cells were seeded in 10 cm culture dishes (1 million cells/dish). […] The day after, they were treated with the following drugs: 5-FU (panel A), AD (B), or IT (C), at the concentrations as indicated for FIG. 14. Cells were analyzed at the day of treatment, 24 h, and 48 h following treatment. Upper panels, results of triplicate counts of viable cells. Lower panels, cells were stained with propidium iodide after permeabilization and fixation. Results of a cell cycle analysis are presented as percentage (%) of apoptotic cells: all of the assays have been performed in triplicate.

[2] = system: DU-145 prostate cancer cells; assay: SRB-assay, reduction in total cellular biomass; assay type: cell-based, human; conditions: 48 hours
Experimental: (§1) The reduction in cellular biomass was measured by SRB-assay. For this assay cells were seeded in 96 well culture dishes at densities between 3000 and 8000 cells per well. […] Cultures were fixed with cold TCA producing a final TCA concentration of 10%. After 1 hour of incubation at 4° C. the cells were washed five times with water and air dried. Fixed cells were stained for 30 minutes with 0,4% (wt/vol) Sulforhodamine B (SRB) dissolved in 1% acetic acid and washed four times with 1% acetic acid to remove unbound dye. After air drying bound dye was solubilized with 10 mM unbuffered Tris base (pH 10,5) for 5 minutes. Optical densities were read on a Titertek Multiskan Plus spectrophotometric plate reader at 550 nm. Six test wells for each dose-response were set in parallel with 12 growth control wells per cell line. A measure of the cell population density at time 0 (To; the time at which the drug was added) was also made from 12 extra reference wells of cells fixed with TCA just prior to drug addition to the test plates. Background OD of complete medium with 5% FBS fixed and stained as described above was also determined in 12 separate wells. From the unprocessed OD data from each microtiter plate the background OD measurements (i.e. OD of complete medium plus stain and OD of cells at T0) were subtracted thus giving the reduction of cellular biomass of the cells.
(§2) The effect on the reduction in total cellular biomass was measured by SRB-assay (see example 1 for assay and read-out procedure details).
Results using MCF-7 estrogen-dependent breast cancer cells are presented in FIG. 18 and using DU-145 prostate cancer cells in FIG. 19. […] The effect on cell growth was measured by SRB-assay as described in example 1.

[3] = system: PC-3 prostate cancer cells; assay: SRB-assay, reduction in total cellular biomass; assay type: cell-based, human; conditions: 0.75 mM racemic 4-yn VPA in combination with Camptothecin, 48 hours
Experimental: as §1, with “From the unprocessed OD data from each microtiter plate the background OD measurements (i.e. OD of complete medium plus stain and OD of cells at T0) were subtracted thus giving the reduction of cellular biomass of the cells.” left out
as §2

PML-RAR leukemia = conditions: PML-RAR patient with multiple relapses after retinoic acid and chemotherapy; cited from earlier work
PPARδ = conditions: cited from earlier work
F9 cells = conditions: cited from earlier work
[4] = system: primary AML blasts from AML patients; assay: ex vivo differentiation, viability and apoptosis of leukemic blasts; assay type: cell-based, human
Experimental: Each point represents the mean of a set of data determined in triplicate (Example 15). VPA may cause synergistic therapeutic responses.
Cases were classified according to the French-American-British (FAB) classification (Bennett et al., Ann Intern Med 103, 1985). Cytogenetic analysis and RT-PCR tests were performed to rule out the presence of the APL associated fusion genes according to standard methods as described (Mandelli et al., Blood 90, 1997; Mancini et al., Br J Haematol. 91, 1995; Grimwade et al., Blood 90, 1999).

[5] = system: HCT-15 colon cancer cells; assay: SRB-assay, reduction in total cellular biomass; assay type: cell-based, human; conditions: 5-FU alone at doses lower than 0.5 μM, 48 hours
Experimental: as §1
This was in particular obvious when lower concentrations of 5-FU were used. E.g. […] Thus, this combinatorial activity of these two drugs must be explained via a synergistic activity of this treatment.

[6] = drug alone at the concentrations used (5-FU 2 μM; AD 20 ng/ml; IT 3 μM)

For `CCc1c2c(nc3ccc(OC(=O)N4CCC(N5CCCCC5)CC4)cc13)-c1cc3c(c(=O)n1C2)COC(=O)[C@]3(O)CC` [irinothecan], the apoptosis [1, 6] was “did not induce apoptosis significantly” and the growth rate [1, 6] was “only moderately affected the growth rate”.
In the case of `N.N.[Cl][Pt][Cl]` [cisPlatinum], the cellular biomass ([2]; cisPlatinum alone at concentrations lower than 10 μM) is reported as “no decrease of the cellular biomass” and the cellular biomass ([2]; cisPlatinum alone at doses lower than 1 μM) is reported as “no decrease of the cellular biomass”.
In the case of `C#CCC(CCC)C(=O)O` (racemic) [4-yn VPA, 2-n-Propyl-4-pentynoic acid], the “reduction of cellular biomass” value ([2]; 0.75 mM racemic 4-yn VPA in combination with cis Platinum lower than 10 μM) is reported as “synergistic reduction of cellular biomass” and the “reduction in cellular biomass” value [3] is reported as “at least additive therapeutic effect”.
For phenylbutyrate, the clinical response (PML-RAR leukemia) is given as “complete remission of the leukemia”.
In the case of `COc1cccc2c1C(=O)c1c(O)c3c(c(O)c1C2=O)C[C@@](O)(C(=O)CO)C[C@@H]3O[C@H]1C[C@H](N)[C@H](O)[C@H](C)O1` [adriamicine], the apoptosis [1, 6] is reported as “did not induce apoptosis significantly” and the growth rate [1, 6] is reported as “only moderately affected the growth rate”.
In the case of `CC(/C=C/C(=O)NO)=C\[C@@H](C)C(=O)c1ccc(N(C)C)cc1` [TSA], the PPARδ activation (PPARδ) is given as “activates PPARδ”, the F9 cell differentiation (F9 cells) is given as “induces the same type of F9 cell differentiation as VPA” and the “synergistic activities in combination (FIGS. 21 and 25)” value ([4]; TSA +/- RA, compared to the extent VPA does) is given as “does not display this synergistic activities”. The “apoptosis of AML blasts (FACS, propidium-iodide)” value ([4]; single agent, 4 cases tested) was “not TSA, was found effective in inducing apoptosis”.
In the case of `O=c1[nH]cc(F)c(=O)[nH]1` [5-FU, 5-Fluorouracil], the cellular biomass [5] is reported as “increase of the cellular biomass”, the apoptosis [1, 6] is reported as “did not induce apoptosis significantly” and the growth rate [1, 6] is reported as “only moderately affected the growth rate”. The apoptosis ([1]; high concentrations of 5-FU alone (not shown)) was “efficiently induce apoptosis”, the apoptosis ([1]; lower doses of 5-FU alone) was “only a modest effect” and the cell number ([1]; lower doses of 5-FU alone, due to reduction in cycling cells) was “reduction in cell number”.
